Source: patent publication US20240382475A1, “Quinazoline Derivative, Or Preparation Method Therefor And Use Thereof” (Zhejiang Hisun Pharmaceutical Co., Ltd., priority 2021, published 2024)
Where two headings read alike, the source gives them in different places.

Tests used:
[1] = test system: p-ERK1/2 in DLD-1 cells; assay: Inhibition of p-ERK1/2 in DLD-1 cells (Cisbio Advanced phospho-ERK1/2 kit); type: cell-based; conditions: Homo sapiens; DLD-1 cells (KRAS G13D mutation), hEGF 5 nM stimulation; read-out: IC50 (nM) Inhibition on p-ERK½ in DLD-1 cells
Source text: The following method was used to determine the inhibition activities of the compounds of the present invention on p-ERK1/2 in DLD-1 cells. The Advanced phospho-ERK1/2 (Thr202/tyr2O4) kit (Art. No. 64AERPEH) from Cisbio was used in this method. Please refer to the kit instruction for detailed experimental operations. DLD-1 cells (containing KRAS G13D mutation) were purchased from the Cell Resource Center of Shanghai Institutes for Biological Sciences, Chinese Academy of Sciences.
The experimental process can be briefly described as follows: DLD-1 cells were cultured in RPMI 1640 complete medium containing 10% fetal bovine serum, 100 U penicillin, 100 μg/mL streptomycin and 1 mM Sodium Pyruvate. DLD-1 cells were plated in a 96-well plate at 30,000 cells per well, after cultured overnight in 5% CO2 incubator at 37° C. with complete culture medium. The test compounds were dissolved in DMSO to prepare storage solutions of 10 mM, and then diluted with RPMI 1640 basic mediums. 90 μL of RPMI 1640 basic mediums containing the test compounds at the corresponding concentration were added to each well. The final concentrations of the test compounds in the reaction system were 10,000 nM to 0.15 nM, and were placed in a cell culture incubator for 3 hours and 40 minutes. Subsequently, 10 μL of hEGF (purchased from Roche, Art. No. 11376454001) prepared with RPMI 1640 basic medium was added to a final concentration of 5 nM, and placed in the incubator for culturing for 20 minutes. The cell supernatant was discarded, and the cells were washed with PBS on ice-bath. Then, 45 μl of 1× cell phospho/total protein lysis buffer (component of Advanced phospho-ERK1/2 kit) was added to each well for lysis. The 96-well plate was placed on ice for 0.5 hours to lyse, and then the lysate was detected according to the instruction of the Advanced phospho-ERK1/2 (Thr202/tyr2O4) kit. Finally, the microplate reader was used in […] mode to measure the fluorescence intensity of each well emitting wavelengths of 620 nm and […] under the excitation wavelength of 304 nm, and the fluorescence intensity ratio 665/620 in each well was calculated. By comparing with the fluorescence intensity ratio of a control group (0.1% DMSO), the percentage inhibition rates of the test compounds at each concentration were calculated, and the IC50 values of the compounds were obtained by performing nonlinear regression analysis with logarithmic values of the compound concentration-inhibition rate by GraphPad Prism 5 software, which can be seen in Table 3.

[2] = test system: NCI-H358 cells; assay: Inhibition of NCI-H358 cell proliferation under 3D non-anchored conditions (CellTiter-Glo 3D); type: cell-based; conditions: Homo sapiens, NCI-H358 cells (KRAS G12C mutation), 120 hours
Protocol: The following method was used to determine the effects of the compounds of the present invention on NCI-H358 cell proliferation under three-dimensional (3D) non-anchored conditions. NCI-H358 cells (containing KRAS G12C mutation) were purchased from the Cell Resource Center of Shanghai Institutes for Biological Sciences, Chinese Academy of Sciences, and cultured in RPMI 1640 medium containing 10% fetal bovine serum, 100 U penicillin, 100 μg/mL streptomycin and 1 mM Sodium Pyruvate. The activities of the cells were determined by CellTiter-Glo® 3D Cell Viability Assay Kit (Promega, Art. No. G9683).
The experimental method was operated according to the steps in the kit instruction, which can be briefly described as follows: the test compounds were first dissolved in DMSO to prepare storage solutions of 10 mM, and then diluted with culture mediums to prepare test samples. The final concentrations of the compounds were 10000 nM to 0.15 nM. Cells in logarithmic phase were inoculated in an ultra-low adsorption 384-well cell culture plate (PerkinElmer, #3830) with 2000 cells per well, and the test compounds were added and cultured for 120 hours. After the culture was completed, 30 μL of CellTiter-Glo 3D detection solution was added to each well, shaken for 30 minutes and then stood for 120 minutes. Then, a Luminescence mode was used to read the luminescence values of each well of the samples on a microplate reader. By comparing with the numerical value of a control group (0.1% DMSO), the percentage inhibition rates of the compounds at each concentration were calculated, and the IC50 values of the compounds inhibiting cell proliferation were obtained by performing nonlinear regression analysis with logarithmic values of the compound concentration-inhibition rate by GraphPad Prism 5 software, which can be seen in Table 4.

[3] = Pharmacokinetic evaluation in beagle dogs; type: in vivo; conditions: male, dog, plasma; for AUC(0-t): read-out: Area under curve AUC0-t; for half-life: read-out: Half-life T1/2 (converted)
Protocol: Beagle, male, 13 to 14 months old, purchased from Beijing Mas Biotechnology Co., Ltd.
Intravenous injection group: an appropriate amount of the compound to be tested was weighed, and an appropriate amount of DMA:30% Solutol HS-15:Saline=5:5:90 (v/v/v) was added, vortexed, and a solution with a final concentration of 0.5 mg/mL was prepared.
Intragastric administration group: an appropriate amount of the compound to be tested was weighed, and an appropriate amount of DMA:30% Solutol HS-15:Saline=5:5:90 (v/v/v) was added, vortexed, and a solution with a final concentration of 1 mg/mL was prepared.
The beagle dogs were divided into intravenous injection group (3 dogs/group) and intragastric administration group (3 dogs/group) according to the compound to be tested.
Intravenous injection group: dogs were fasted overnight and then administered by intravenous injection (administration dosage was 0.5 mg/kg, and administration volume was 1 mL/kg), and ate 4 hours after administration. […]
Intravenous injection group: about 0.5 mL of blood was collected through jugular vein into EDTA-K2 anticoagulant tubes at 0.083 hour, 0.25 hour, 0.5 hour, 1 hour, 2 hours, 4 hours, 8 hours and 24 hours after administration. […] The collected plasma sample was stored at −40˜−20° C. before analysis.
Intragastric administration group: about 0.5 mL of blood was collected through jugular vein into EDTA-K2 anticoagulant tubes at 0.25 hour, 0.5 hour, 1 hour, 2 hours, 4 hours, 8 hours and 24 hours after administration. […] The collected plasma sample was stored at −40˜−20° C. before analysis.
LC-MS/MS was used to determine the content of the compound to be tested in dog plasma after intravenous injection and intragastric administration of the compound.

Structure (SMILES): COc1cc2nc(C)nc(N[C@H](C)c3cccc(C#N)c3C)c2cc1N1CCOCC1 [Compound 1, (R)-3-(1-((7-methoxy-2-methyl-6-morpholinoquinazolin-4-yl)amino)ethyl)-2-methylbenzonitrile]
- IC50 [1]: 48.7 nM
- IC50 [2]: 78.3 nM

Structure (SMILES): COc1cc2nc(C)nc(N[C@H](C)c3cccc(C#N)c3C)c2cc1N1CCN(C(C)=O)CC1 [Compound 2, (R)-3-(1-((6-(4-acetylpiperazin-1-yl)-7-methoxy-2-methylquinazolin-4-yl)amino)ethyl)-2-methylbenzonitrile]
- IC50 [1]: 65.4 nM
- IC50 [2]: 49.6 nM

Structure (SMILES): COc1cc2nc(C)nc(N[C@H](C)c3cccc(C#N)c3C)c2cc1N1CCC2(CCOCC2)CC1 [Compound 4, (R)-3-(1-((7-methoxy-2-methyl-6-(3-oxa-9-azaspiro[5.5]undecan-9-yl)quinazolin-4-yl)amino)ethyl)-2-methylbenzonitrile]
- IC50 [2]: 7 nM

Structure (SMILES): COc1cc2nc(C)nc(N[C@H](C)c3cccc(C#N)c3C)c2cc1N1CCC2(CC1)COC2 [Compound 5, (R)-3-(1-((7-methoxy-2-methyl-6-(2-oxa-7-azaspiro[3.5]nonan-7-yl)quinazolin-4-yl)amino)ethyl)-2-methylbenzonitrile]
- IC50 [1]: 66.1 nM
- IC50 [2]: 10.7 nM

Structure (SMILES): COc1cc2nc(C)nc(N[C@H](C)c3cccc(C#N)c3C)c2cc1N1CCC2(CCN(C)C2=O)CC1 [Compound 7, (R)-3-(1-((7-methoxy-2-methyl-6-(2-methyl-1-oxo-2,8-diazaspiro[4.5]decan-8-yl)quinazolin-4-yl)amino)ethyl)-2-methylbenzonitrile]
- IC50 [1]: 31.1 nM

Structure (SMILES): COc1cc2nc(C)nc(N[C@H](C)c3cccc(C#N)c3C)c2cc1N1CCC(C#N)CC1 [Compound 8, (R)-1-(4-((1-(3-cyano-2-methylphenyl)ethyl)amino)-7-methoxy-2-methylquinazolin-6-yl)piperidine-4-carbonitrile]
- IC50 [1]: 38.2 nM

Structure (SMILES): COc1cc2nc(C)nc(N[C@H](C)c3cccc(C#N)c3C)c2cc1N1CCC(C)(O)CC1 [Compound 11, (R)-3-(1-((6-(4-hydroxy-4-methylpiperidin-1-yl)-7-methoxy-2-methylquinazolin-4-yl)amino)ethyl)-2-methylbenzonitrile]
- bioavailability ([3]; Oral 2 mg/kg vs injection 0.5 mg/kg, read-out: Bioavailability F): 127%
- AUC(0-t) ([3]; Oral 2 mg/kg): 3510 ± 1750 ng·h/mL
- half-life ([3]; Oral 2 mg/kg): 4.21 ± 0.943 h
- Cmax ([3]; Oral 2 mg/kg, read-out: Plasma concentration Cmax): 456 ± 149 ng/mL
- AUC(0-t) ([3]; iv, injection 0.5 mg/kg): 693 ± 183 ng·h/mL
- half-life ([3]; iv, injection 0.5 mg/kg): 2.81 ± 0.45 h
- IC50 [1]: 29.7 nM
- IC50 [2]: 71.4 nM

Structure (SMILES): COc1cc2nc(C)nc(N[C@H](C)c3cccc(C#N)c3C)c2cc1N1CCC2(CC1)CN(C(C)=O)C2 [Compound 19, (R)-3-(1-((6-(2-acetyl-2,7-diazaspiro[3.5]nonan-7-yl)-7-methoxy-2-methylquinazolin-4-yl)amino)ethyl)-2-methylbenzonitrile]
- IC50 [1]: 46.3 nM
- IC50 [2]: 21.2 nM
